How the values were obtained:
IDO1 [1] = target: T1, IDO1 (Homo sapiens, UniProt P14902); experiment: IDO1 Cellular Assay in HeLa Cells Stimulated with IFNγ; type: cell-based; conditions: read-out: HeLa Cell Potency, IC50
IDO1 [2] = target: T1, IDO1; experiment: IDO1 Human Whole blood Assay; type: cell-based; parameters: Human whole blood was drawn in sodium heparin coated tubes from healthy internal donors; from tissue; host or cells: human whole blood from healthy donors, stimulated with LPS and IFNγ; conditions: LPS and IFNγ stimulated, 18 h, read-out: Human Whole Blood Potency, IC50
Procedure, shortened: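 Heparinized healthy-donor human whole blood was preincubated 15 min with compound, then stimulated with LPS and IFNγ (100 ng/mL final) for 18 h at 37 °C. Plasma kynurenine was quantified by LC/MS/MS against a D6-kynurenine internal standard, and IC50s came from 4-parameter sigmoidal fits.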

T1 sequence (P14902 whole entry): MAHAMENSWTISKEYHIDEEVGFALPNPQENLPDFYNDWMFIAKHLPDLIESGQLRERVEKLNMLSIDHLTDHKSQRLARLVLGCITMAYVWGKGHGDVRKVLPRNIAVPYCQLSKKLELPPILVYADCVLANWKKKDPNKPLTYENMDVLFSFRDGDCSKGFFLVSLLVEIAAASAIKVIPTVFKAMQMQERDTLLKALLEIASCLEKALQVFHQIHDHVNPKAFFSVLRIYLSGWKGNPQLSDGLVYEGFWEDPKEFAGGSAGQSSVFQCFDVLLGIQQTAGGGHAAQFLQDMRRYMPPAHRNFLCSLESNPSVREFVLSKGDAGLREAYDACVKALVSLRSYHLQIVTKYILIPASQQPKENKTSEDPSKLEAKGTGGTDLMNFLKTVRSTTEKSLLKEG

Row | IC50 (IDO1 [1]) [nM] | IC50 (IDO1 [2]) [nM] | SMILES
1 | 5.45 | 164 | Cc1cccc(N2CCN(C(=O)Cn3nc(C(=O)N4CC[C@@H](O)[C@@H](F)C4)c4c3CCCC4)CC2)c1C [Example 476, 1-(4-(2,3-dimethylphenyl)piperazin-1-yl)-2-(3-((3S,4R)-3-fluoro-4-hydroxypiperidine-1-carbonyl)-4,5,6,7-tetrahydro-1H-indazol-1-yl)ethanone]
2 | 5.53 | 61 | Cc1cccc(N2CCN(C(=O)Cn3nc(C(=O)N4CCC(O)(CF)CC4)c4c3CCCC4)CC2)c1C [Example 477, 1-(4-(2,3-dimethylphenyl)piperazin-1-yl)-2-(3-(4-(fluoromethyl)-4-hydroxypiperidine-1-carbonyl)-4,5,6,7-tetrahydro-1H-indazol-1-yl)ethanone]
3 | 7.15 | 137 | Cc1cccc(N2CCN(C(=O)Cn3nc(C(=O)N4CCC(NC(=O)CCO)CC4)c4c3CCCC4)CC2)c1C [Example 478, N-(1-(1-(2-(4-(2,3-dimethylphenyl)piperazin-1-yl)-2-oxoethyl)-4,5,6,7-tetrahydro-1H-indazol-3-carbonyl)piperidin-4-yl)-3-hydroxypropanamide]
4 | 7.51 | 230 | Cc1cccc(N2CCN(C(=O)Cn3nc(C(=O)N4CCC(N)CC4)c4c3C[C@H]3C[C@@H]43)CC2)c1C [Example 479, 2-((3bR,4aR)-3-(4-aminopiperidine-1-carbonyl)-3b,4,4a,5-tetrahydro-1H-cyclopropa [3,4]cyclopenta[1,2-c]pyrazol-1-yl)-1-(4-(2,3-dimethylphenyl)piperazin-1-yl)ethanone]
5 | 8.74 | 90 | Cc1cccc(N2CCN(C(=O)Cn3nc(C(=O)N4CCN(C(=O)CO)CC4)c4c3CCCC4)CC2)c1C [Example 480, 1-(4-(2,3-dimethylphenyl)piperazin-1-yl)-2-(3-(4-(2-hydroxyacetyl)piperazin-1-carbonyl)-4,5,6,7-tetrahydro-1H-indazol-1-yl)ethanone]
6 | 3.21 | 2710 | Cc1cccc(N2CCN(C(=O)Cn3nc(C(=O)N4CCC(O)CC4)c4c3CCC4)C3(CC3)C2)c1C [compound 392]

From patent US12264134B2 (Merck Sharp & Dohme LLC, priority 2018, dated 2025)
